Measured values reported in publication PMC13070491, “Single-nucleus transcriptomics, pharmacokinetics, and pharmacodynamics of CDK4/6 and mTOR inhibition in a Phase 0/1 trial of recurrent high-grade glioma” (Neuro-Oncology, 2025).
“And” between values parts separate entries of the source, which are not always exact repeats. Equal values may be shown once.

Experiment: CNS penetration: total and unbound drug concentrations in tumor regions, CSF and plasma (LC-MS/MS, equilibrium dialysis);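 also: drug levels in patient tumor tissue from contrast-enhancing and non-enhancing regions sampled under MRI-guided neuronavigation, with plasma and CSF drawn during surgical resection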
Settings: for Ribociclib.CSF / Ribociclib.Non-enhancing.tumor / Ribociclib.Plasma.conc / Ribociclib.Unbound.CSF / Ribociclib.Unbound.enhancing: per patient; for Kp at 120 h / Kp uu at 120 h / concentration at 5 days: human
[1] = Level 0: Ribociclib 400mg QD + Everolimus 2.5mg QD, sampling 1-3 Hours
[2] = Level 0: Ribociclib 400mg QD + Everolimus 2.5mg QD, sampling 23-25 Hours
[3] = Level 1: Ribociclib 600mg QD + Everolimus 2.5mg QD, sampling 1-3 Hours
[4] = Level 1: Ribociclib 600mg QD + Everolimus 2.5mg QD, sampling 7-9 Hours
[5] = Level 2: Ribociclib 600mg QD + Everolimus 5mg QD, sampling 7-9 Hours
[6] = Level 3: Ribociclib 600mg QD + Everolimus 10mg QD, sampling 7-9 Hours
[7] = Level 4: Ribociclib 600mg QD + Everolimus 50mg once on Day 5, sampling 7-9 Hours
[8] = Level 5: Ribociclib 600mg QD + Everolimus 60mg once on Day 5, sampling 7-9 Hours
[9] = Level 6: Ribociclib 600mg QD + Everolimus 70mg once on Day 5, sampling 7-9 Hours
[10] = enhancing tumor / plasma, oral, 400 mg
[11] = enhancing tumor / plasma, oral, 600 mg
[12] = non-enhancing tumor / plasma, oral, 400 mg
[13] = non-enhancing tumor / plasma, oral, 600 mg

For `CN(C)C(=O)c1cc2cnc(Nc3ccc(N4CCNCC4)cn3)nc2n1C1CCCC1` [Ribociclib, ribociclib], the “Total Ribociclib concentration, CSF, Minimum” value (400 mg QD 5 days) was 36 nM, the “Total Ribociclib concentration, CSF, Maximum” value (600 mg QD 5 days) was 714 nM and the “Total Ribociclib concentration, CSF, Median” value (600 mg QD 5 days) was 276 nM. For the same compound, the “Total Ribociclib concentration, CSF, Minimum” value (600 mg QD 5 days) was 54 nM, the Ribociclib.CSF [1] was 0.0707 and the Ribociclib.Non-enhancing.tumor [1] was 6.684. The Ribociclib.Plasma.conc [1] was 2.09 and 0.31, the Ribociclib.Unbound.CSF [1] was 0.2008 and 0.0206 and the Ribociclib.Unbound.enhancing [1] was 1.4 and 0.419. The Ribociclib.CSF [2] was 0.1931, the Ribociclib.Non-enhancing.tumor [2] was 3.834 and the Ribociclib.Plasma.conc [2] was 0.402 and 0.1417. For the same compound, the Ribociclib.Unbound.CSF [2] was 0.0928, the Ribociclib.Unbound.enhancing [2] was 0.92 and 0.1576 and the Ribociclib.CSF [3] was 0.0543. For the same compound, the Ribociclib.Non-enhancing.tumor [3] was 7.2608, the Ribociclib.Plasma.conc [3] was 0.1944 and the Ribociclib.Unbound.CSF [3] was 0.0207. The Ribociclib.Unbound.enhancing [3] was 0.4205, the Ribociclib.CSF [4] was 0.4701 and 0.7139 and the Ribociclib.Non-enhancing.tumor [4] was 30.0728 and 22.3048. For the same compound, the Ribociclib.Plasma.conc [4] was 3.4168 and 1.3485, the Ribociclib.Unbound.CSF [4] was 0.2858 and 0.3152 and the Ribociclib.Unbound.enhancing [4] was 4.5 and 3.49. The Ribociclib.CSF [5] was 0.1529 and 0.1758, the Ribociclib.Non-enhancing.tumor [5] was 8.1928 and 11.9076 and 16.496 and the Ribociclib.Plasma.conc [5] was 1.151 and 0.8853 and 1.3745. For the same compound, the Ribociclib.Unbound.CSF [5] was 0.1531 and 0.1613, the Ribociclib.Unbound.enhancing [5] was 1.0167 and 1.1852 and 2.1093 and the Ribociclib.CSF [6] was 0.2760 and 0.5558 and 0.3667. The Ribociclib.Non-enhancing.tumor [6] was 19.9804 and 11.7316 and 41.6376, the Ribociclib.Plasma.conc [6] was 1.0816 and 1.6009 and the Ribociclib.Unbound.CSF [6] was 0.3027. For the same compound, the Ribociclib.Unbound.enhancing [6] was 1.1229 and 3.39 and 0.0047, the Ribociclib.CSF [7] was 0.1707 and 0.4561 and the Ribociclib.Non-enhancing.tumor [7] was 4.2684 and 4.8112. The Ribociclib.Plasma.conc [7] was 0.7506 and 1.3586 and 0.9058, the Ribociclib.Unbound.CSF [7] was 0.1543 and 0.2120 and 0.3373 and the Ribociclib.Unbound.enhancing [7] was 0.6494 and 0.9352 and 3.453. The Ribociclib.CSF [8] was 0.0807 and 0.3122 and 0.4398, the Ribociclib.Non-enhancing.tumor [8] was 12.238 and 4.126 and the Ribociclib.Plasma.conc [8] was 1.163 and 1.8703 and 1.3349. The Ribociclib.Unbound.CSF [8] was 0.0799 and 0.2965, the Ribociclib.Unbound.enhancing [8] was 1.348 and 0.6511 and 0.2648 and the Ribociclib.CSF [9] was 0.5436 and 0.0672 and 0.1419. For the same compound, the Ribociclib.Non-enhancing.tumor [9] was 17.8508 and 1.3144 and 1.5982, the Ribociclib.Plasma.conc [9] was 1.4899 and 0.302 and 1.3235 and the Ribociclib.Unbound.CSF [9] was 0.1898 and 0.0709 and 0.0882. For the same compound, the Ribociclib.Unbound.enhancing [9] was 1.0559 and 0.5673 and 0.5436, the Kp at 120 h (CSF / plasma, oral, 400 mg) was 0.25 and the Kp uu at 120 h (CSF / plasma, oral, 400 mg) was 1.15. For the same compound, the Kp at 120 h (CSF / plasma, oral, 600 mg) was 0.22, the Kp uu at 120 h (CSF / plasma, oral, 600 mg) was 0.84 and the concentration at 5 days (CSF, oral, Total Ribociclib concentration, Maximum, 400 mg QD 5 days) was 216 nM. The concentration at 5 days (CSF, oral, Total Ribociclib concentration, Median, 400 mg QD 5 days) was 137 nM, the concentration at 5 days (CSF, oral, Unbound Ribociclib concentration, Maximum, 400 mg QD 5 days) was 201 nM and the concentration at 5 days (CSF, oral, Unbound Ribociclib concentration, Maximum, 600 mg QD 5 days) was 337 nM. The concentration at 5 days (CSF, oral, Unbound Ribociclib concentration, Median, 400 mg QD 5 days) was 82 nM, the concentration at 5 days (CSF, oral, Unbound Ribociclib concentration, Median, 600 mg QD 5 days) was 212 nM and the concentration at 5 days (CSF, oral, Unbound Ribociclib concentration, Minimum, 400 mg QD 5 days) was 21 nM. It also gave a concentration at 5 days (CSF, oral, Unbound Ribociclib concentration, Minimum, 600 mg QD 5 days) of 21 nM, a Kp at 120 h [10] of 12.9 and a Kp uu at 120 h [10] of 5.1. It also gave a Kp at 120 h [11] of 14.1, a Kp uu at 120 h [11] of 5.67 and a concentration at 5 days (enhancing tumor, oral, Total Ribociclib concentration, Maximum, 400 mg QD 5 days) of 9900 nM. For the same compound, the concentration at 5 days (enhancing tumor, oral, Total Ribociclib concentration, Maximum, 600 mg QD 5 days) was 49400 nM, the concentration at 5 days (enhancing tumor, oral, Total Ribociclib concentration, Median, 400 mg QD 5 days) was 4060 nM and the concentration at 5 days (enhancing tumor, oral, Total Ribociclib concentration, Median, 600 mg QD 5 days) was 14800 nM. The concentration at 5 days (enhancing tumor, oral, Total Ribociclib concentration, Minimum, 400 mg QD 5 days) was 2330 nM, the concentration at 5 days (enhancing tumor, oral, Total Ribociclib concentration, Minimum, 600 mg QD 5 days) was 753 nM and the concentration at 5 days (enhancing tumor, oral, Unbound Ribociclib concentration, Maximum, 400 mg QD 5 days) was 1400 nM. It also gave a concentration at 5 days (enhancing tumor, oral, Unbound Ribociclib concentration, Maximum, 600 mg QD 5 days) of 4500 nM, a concentration at 5 days (enhancing tumor, oral, Unbound Ribociclib concentration, Median, 400 mg QD 5 days) of 375 nM and a concentration at 5 days (enhancing tumor, oral, Unbound Ribociclib concentration, Median, 600 mg QD 5 days) of 1040 nM. For the same compound, the concentration at 5 days (enhancing tumor, oral, Unbound Ribociclib concentration, Minimum, 400 mg QD 5 days) was 158 nM, the concentration at 5 days (enhancing tumor, oral, Unbound Ribociclib concentration, Minimum, 600 mg QD 5 days) was 4.7 nM and the Kp at 120 h [12] was 8.35. It also gave a Kp uu at 120 h [12] of 3.19, a Kp at 120 h [13] of 8.8 and a Kp uu at 120 h [13] of 3.78. The concentration at 5 days (non-enhancing tumor, oral, Total Ribociclib concentration, Maximum, 400 mg QD 5 days) was 15000 nM, the concentration at 5 days (non-enhancing tumor, oral, Total Ribociclib concentration, Maximum, 600 mg QD 5 days) was 41600 nM and the concentration at 5 days (non-enhancing tumor, oral, Total Ribociclib concentration, Median, 400 mg QD 5 days) was 3130 nM. It also gave a concentration at 5 days (non-enhancing tumor, oral, Total Ribociclib concentration, Median, 600 mg QD 5 days) of 11700 nM, a concentration at 5 days (non-enhancing tumor, oral, Total Ribociclib concentration, Minimum, 400 mg QD 5 days) of 1370 nM and a concentration at 5 days (non-enhancing tumor, oral, Total Ribociclib concentration, Minimum, 600 mg QD 5 days) of 1310 nM. For the same compound, the concentration at 5 days (non-enhancing tumor, oral, Unbound Ribociclib concentration, Maximum, 400 mg QD 5 days) was 1770 nM, the concentration at 5 days (non-enhancing tumor, oral, Unbound Ribociclib concentration, Maximum, 600 mg QD 5 days) was 2340 nM and the concentration at 5 days (non-enhancing tumor, oral, Unbound Ribociclib concentration, Median, 400 mg QD 5 days) was 170 nM. For the same compound, the concentration at 5 days (non-enhancing tumor, oral, Unbound Ribociclib concentration, Median, 600 mg QD 5 days) was 693 nM, the concentration at 5 days (non-enhancing tumor, oral, Unbound Ribociclib concentration, Minimum, 400 mg QD 5 days) was 65 nM and the concentration at 5 days (non-enhancing tumor, oral, Unbound Ribociclib concentration, Minimum, 600 mg QD 5 days) was 68 nM. For the same compound, the concentration at 5 days (non-enhancing tumor, po, unbound drug concentration in the non-enhancing tumor regions, range, ribociclib 400 mg daily oral, 5 days) was 65 to 1770 nM and the concentration at 5 days (non-enhancing tumor, po, unbound drug concentration in the non-enhancing tumor regions, range, ribociclib 600 mg daily oral, 5 days) was 68 to 2340 nM.
